# Test results published in patent US11730723B2, “Compounds and methods for treating viral infections” (priority 2020, dated 2023).
# Where “and” joins values, the source holds several entries; their conditions need not be identical. Equal entries are not always repeated. Where two headings read alike, the source gives them in different places.
# Legend:
# [1] = Cytotoxicity on MRC-5 cells (CellTiter Glo); conditions: human, MRC-5 cells without virus
# in vitro [2] = conditions: African green monkey, Vero 76 cells
# HCoV-OC43 [3] = test: HCoV-OC43 CPE assay in Huh-7 cells (neutral red uptake, 6 days); format: cell-based, human coronavirus (HCoV) OC43 strain; conditions: for Raw OD-Absorbance 490 nm: infected Huh-7, neutral red uptake, individual replicates
# [4] = test system: MERS coronavirus (EMC strain); test: microbe, parasite or virus in culture; format: cell-based, MERS-CoV; conditions: Middle East respiratory syndrome-related coronavirus
# Huh-7 cells = test: Cytotoxicity / viability of uninfected Huh-7 cells (XTT, 6 days); conditions: 6 days, raw absorbance 490 nm, individual replicates, listed as Compd. 1
# [5] = test system: dengue virus (DENV) serotype 2 strain D2S221; test: Dengue virus D2S221 inhibition assay in Vero cells (immunostaining); conditions: read-out: D2S221 IC50
# HCoV 229E = HCoV 229E CPE assay in MRC-5 cells (CellTiter Glo); format: cell-based, human coronavirus (HCoV) 229E; conditions: unidentified human coronavirus, MRC5; MRC-5 cells, CellTiter Glo; read-out: HCoV 229E CPE assay EC50
# [6] = test system: alpha coronavirus 229E (CoV-229E); test: CoV-229E virus-induced CPE inhibition in MRC-5 cells (XTT); conditions: 6 days
# [7] = Cytotoxicity on Huh7 cells (CellTiter Glo); conditions: human, Huh7 cells without virus
# in vitro [8] = conditions: African green monkey
# [9] = test system: SARS-CoV-2 (USA-WA1/2020); conditions: Compound 1 at 25 μM; HCQ at 5 μM; remdesivir 10 μM
# HCoV OC43 = HCoV OC43 CPE assay in Huh7 cells (CellTiter Glo); format: cell-based, human coronavirus (HCoV) OC43; conditions: Betacoronavirus 1, OC43, Huh-7; Huh7 cells, CellTiter Glo; read-out: HCoV OC43 CPE Assay EC50
# in vitro [10] = conditions: African green monkey; remark: listed apart in the source
# H292 cells (NCI-H292) = test: Cytotoxicity in uninfected H292 cells (MTT); conditions: CC50, uninfected H292 cells
# HCoV-OC43 [11] = test: HCoV-OC43 efficacy in H292 cells (MTT, 6 days); format: cell-based, HCoV-OC43 (Betacoronavirus 1)
# [12] = test system: HBV wild-type strain ayw1; test: Primary anti-HBV assay in HepG2 2.2.15 cells (qPCR of HBV DNA); conditions: Hepatitis B virus, HepG2 2.2.15, 144 h
# [13] = test system: SARS-CoV-2 (USA-WA1/2020); test: microbe, parasite or virus in culture
# Vero E6 cells = conditions: for viability of Vero E6 cells (percent of vehicle alone): 2-day treatment, mean ± SD of duplicates
# [14] = Cytotoxicity in HepG2 2.2.15 cells (MTS); format: cell-based; conditions: human, same assay plate
smiles,measurement,setting,value
"CC(C)C[C@](C)(N)COc1ccc(-c2ccnc(C(F)F)c2)nc1C(F)F [Compound 1, (S)-1-((2′,6-bis(difluoromethyl)-[2,4′-bipyridin]-5-yl)oxy)-2,4-dimethylpentan-2-amine]",CC50,[1],15 µM
same,CC50,in vitro [2]; CC50 measured by microscopic visual assay,22 µg/mL
same,CC50,in vitro [2]; CC50 measured by neutral red assay,11 µg/mL
same,EC50,"HCoV-OC43 [3]; Betacoronavirus 1, OC43, 144 h, Huh-7 cells, 6 days, neutral red",> 30 µM
same,inhibition at 0.01 µM,"HCoV-OC43 [3]; Betacoronavirus 1, OC43, Huh-7, 0.01 μM, mean of duplicates, read-out: Inhibition of OC43 Virus-Induced CPE in Huh-7 Cells",-0.4%
same,inhibition at 0.04 µM,"HCoV-OC43 [3]; Betacoronavirus 1, OC43, Huh-7, 0.04 μM, mean of duplicates, read-out: Inhibition of OC43 Virus-Induced CPE in Huh-7 Cells",-3%
same,inhibition at 0.12 µM,"HCoV-OC43 [3]; Betacoronavirus 1, OC43, Huh-7, 0.12 μM, mean of duplicates, read-out: Inhibition of OC43 Virus-Induced CPE in Huh-7 Cells",-1.2%
same,inhibition at 0.4 µM,"HCoV-OC43 [3]; Betacoronavirus 1, OC43, Huh-7, 0.4 μM, mean of duplicates, read-out: Inhibition of OC43 Virus-Induced CPE in Huh-7 Cells",-1.8%
same,inhibition at 1.1 µM,"HCoV-OC43 [3]; Betacoronavirus 1, OC43, Huh-7, 1.1 μM, mean of duplicates, read-out: Inhibition of OC43 Virus-Induced CPE in Huh-7 Cells",5.4%
same,inhibition at 3.3 µM,"HCoV-OC43 [3]; Betacoronavirus 1, OC43, Huh-7, 3.3 μM, mean of duplicates, read-out: Inhibition of OC43 Virus-Induced CPE in Huh-7 Cells",25.2%
same,inhibition at 10 µM,"HCoV-OC43 [3]; Betacoronavirus 1, OC43, Huh-7, 10 μM, mean of duplicates, read-out: Inhibition of OC43 Virus-Induced CPE in Huh-7 Cells",30.7%
same,inhibition at 30 µM,"HCoV-OC43 [3]; Betacoronavirus 1, OC43, Huh-7, 30 μM, mean of duplicates, read-out: Inhibition of OC43 Virus-Induced CPE in Huh-7 Cells",-7.1%
same,Raw OD-Absorbance 490 nm,"HCoV-OC43 [3]; 0.01 μM, listed as Compd. 1",0.102 and 0.101
same,Raw OD-Absorbance 490 nm,"HCoV-OC43 [3]; 0.04 μM, listed as Compd. 1",0.078 and 0.089
same,Raw OD-Absorbance 490 nm,"HCoV-OC43 [3]; 0.12 μM, listed as Compd. 1",0.092 and 0.099
same,Raw OD-Absorbance 490 nm,HCoV-OC43 [3]; 0.4 μM,0.092
same,Raw OD-Absorbance 490 nm,"HCoV-OC43 [3]; 1.1 μM, listed as Compd. 1",0.115 and 0.165
same,Raw OD-Absorbance 490 nm,"HCoV-OC43 [3]; 3.3 μM, listed as Compd. 1",0.292 and 0.253
same,Raw OD-Absorbance 490 nm,"HCoV-OC43 [3]; 10 μM, listed as Compd. 1",0.322 and 0.297
same,Raw OD-Absorbance 490 nm,"HCoV-OC43 [3]; 30 μM, listed as Compd. 1",0.057 and 0.056
same,EC50,"[4]; Vero 76, read-out: EC50 measured by microscopic visual assay",6.4 µg/mL
same,EC50,"[4]; Vero 76, read-out: EC50 measured by neutral red assay",5.4 µg/mL
same,Viability of Huh-7 Cells (A490),Huh-7 cells; 0.01 μM,0.749 and 0.746
same,Viability of Huh-7 Cells (A490),Huh-7 cells; 0.04 μM,0.731 and 0.759
same,Viability of Huh-7 Cells (A490),Huh-7 cells; 0.12 μM,0.822 and 0.825
same,Viability of Huh-7 Cells (A490),Huh-7 cells; 0.37 μM,0.886 and 0.928
same,Viability of Huh-7 Cells (A490),Huh-7 cells; 1.1 μM,0.925 and 0.996
same,Viability of Huh-7 Cells (A490),Huh-7 cells; 3.3 μM,1.017 and 1.085
same,Viability of Huh-7 Cells (A490),Huh-7 cells; 10 μM,0.915 and 1.016
same,Viability of Huh-7 Cells (A490),Huh-7 cells; 30 μM,0.052 and 0.053
same,Viability of Huh-7 Cells (A490),Huh-7 cells; 90 μM,0.055 and 0.054
same,IC50,[5],6.66 µM
same,EC50,HCoV 229E,3.64 µM
same,EC50,[6],~2.4 µM and 2.4 µM
same,CC50,[7],13.2 µM
same,CC50 at 4 days,in vitro [8],13.5 µM
same,prevention of the SARS-CoV-2 induced CPE (in words),[9],partially prevented the virus induced cytopathic effect
same,EC50,HCoV OC43,6 µM
same,CC50,in vitro [10],37 µM
same,Cytotoxicity,H292 cells (NCI-H292),57.72 µM
same,EC50,"HCoV-OC43 [11]; Betacoronavirus 1, NCI-H292, EC50, HCoV-OC43 infected H292 cells, MTT, read-out: Efficacy",1.43 µM
same,antiviral activity against β-coronavirus OC43 in H292 cells (in words),"HCoV-OC43 [11]; viability of infected H292 cells, FIG. 6",significant antiviral effect
same,EC50,[12],6.35 µM
same,EC90,[12],> 100 µM
same,IC50,"[13]; Severe acute respiratory syndrome coronavirus 2, Vero C1008, 48 h, read-out: Live SARS-CoV-2 Antiviral Assay IC50",12.5 to 25 µM
same,viability at 25 µM,"[13]; Severe acute respiratory syndrome coronavirus 2, Vero C1008, read-out: cell viability in the infected culture, of the levels observed in uninfected cells",80%
same,viability of Vero E6 cells (percent of vehicle alone),Vero E6 cells; 1.56 μM,101.0 ± 5.2%
same,viability of Vero E6 cells (percent of vehicle alone),Vero E6 cells; 3.13 μM,97.1 ± 5.2%
same,viability of Vero E6 cells (percent of vehicle alone),Vero E6 cells; 6.3 μM,86.2 ± 3.2%
same,viability of Vero E6 cells (percent of vehicle alone),Vero E6 cells; 12.5 μM,83.3 ± 1.7%
same,viability of Vero E6 cells (percent of vehicle alone),Vero E6 cells; 25 μM,80.7 ± 2.4%
same,viability of Vero E6 cells (percent of vehicle alone),Vero E6 cells; 50 μM,17.3 ± 8.4%
same,viability of Vero E6 cells (percent of vehicle alone),Vero E6 cells; 100 μM,2.0 ± 0.2%
same,viability of Vero E6 cells (in words),"Vero E6 cells; Compound 1 at concentrations lower than 25 μM, HCQ at all concentrations tested",not significantly changed
same,CC50,[14],29.3 µM
